Read-outs that look alike come from different tables or passages of the source. Marks after values point to notes of the source that are not given here.
Tested on: A/Solomon Island virus (A/SI/3/2006)
Type: in vivo, BALB/c mice
Details: for IgA concentration in mucosal samples GeoMean, BAL / IgA concentration in mucosal samples GeoMean, Feces / IgA concentration in mucosal samples GeoMean, Nasal Wash / IgA concentration in mucosal samples GeoMean, Saliva / IgA concentration in mucosal samples GeoMean, Vaginal Wash: days 0 and 14, two weeks after second immunization
[1] = Table 2 study, A/SI/3/2006 7.5 μg, adjuvant 1 μg
[2] = Table 1 study, dose of Ag 14 μg

Compound	IgA concentration in mucosal samples GeoMean, BAL [1]	IgA concentration in mucosal samples GeoMean, Feces [1]	IgA concentration in mucosal samples GeoMean, Nasal Wash [1]	IgA concentration in mucosal samples GeoMean, Saliva [1]	IgA concentration in mucosal samples GeoMean, Vaginal Wash [1]	IgA BAL levels compared to IM immunization (Table 2 study, Kruskal Wallis and Dunn's multiple comparison test)	IgA response in vaginal wash by adjuvantation (Table 2 study, vaginal wash)	IgA concentration in mucosal samples GeoMean, BAL (Table 1 study, dose of Ag 7 μg)	IgA concentration in mucosal samples GeoMean, Feces (Table 1 study, dose of Ag 7 μg)	IgA concentration in mucosal samples GeoMean, Nasal Wash (Table 1 study, dose of Ag 7 μg)	IgA concentration in mucosal samples GeoMean, Saliva (Table 1 study, dose of Ag 7 μg)	IgA concentration in mucosal samples GeoMean, Vaginal Wash (Table 1 study, dose of Ag 7 μg)	IgA concentration in mucosal samples GeoMean, BAL [2]	IgA concentration in mucosal samples GeoMean, Feces [2]	IgA concentration in mucosal samples GeoMean, Nasal Wash [2]	IgA concentration in mucosal samples GeoMean, Saliva [2]	IgA concentration in mucosal samples GeoMean, Vaginal Wash [2]
Flagellin	4.04 ng/mL	14.56 ng/mL	4.00 ng/mL	2.69 ng/mL	9.93** ng/mL	significantly higher	highly increased the IgA response	–	–	–	–	–	–	–	–	–	–
CCCCCCCCCCC[C@H](CC(=O)N[C@H]1[C@H](OC[C@H](NC(=O)C[C@@H](CCCCCCCCCCC)OC(=O)CCCCCCCCC)C(=O)O)O[C@H](CO)[C@@H](OP(=O)(O)O)[C@@H]1OC(=O)C[C@@H](CCCCCCCCCCC)OC(=O)CCCCCCCCC)OC(=O)CCCCCCCCC [CRX527]	3.47 ng/mL	8.68 ng/mL	3.50 ng/mL	3.22 ng/mL	7.05 ng/mL	–	–	7.43*** ng/mL	48.40*** ng/mL	11.88* ng/mL	7.53 ng/mL	81.01*** ng/mL	3.67 ng/mL	75.71*** ng/mL	8.22 ng/mL	5.13 ng/mL	120.80*** ng/mL
